Test results published in patent US20260274829A1, “NEW E3 UBIQUITIN LIGASE LIGAND, PROTEIN DEGRADATION AGENT AND USE THEREOF” (GLUETACS THERAPEUTICS (SHANGHAI) CO., LTD., priority 2023, published 2026).

Legend:
Type in all cases: cell-based
[1] = molecular target: T1, CK1a (Homo sapiens, UniProt P48729+Q96SW2); assay: Western blot degradation of CK1a in hPBMC
T1 construct: endogenous in cells; host or cells: hPBMC
Outline: (§1)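 hPBMC, compound-treated; SDS-PAGE Western, NC membrane, 1 h RT block. DC50 = conc. at 50% of DMSO band grayscale (curve fit). % remaining = target/internal control band ratio, normalized.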

[2] = molecular target: T2, WEE1 (Homo sapiens, UniProt P30291+Q96SW2); assay: Western blot degradation of WEE1 in hPBMC
T2 construct: endogenous in cells; host or cells: hPBMC
T2 sequence (P30291 whole entry): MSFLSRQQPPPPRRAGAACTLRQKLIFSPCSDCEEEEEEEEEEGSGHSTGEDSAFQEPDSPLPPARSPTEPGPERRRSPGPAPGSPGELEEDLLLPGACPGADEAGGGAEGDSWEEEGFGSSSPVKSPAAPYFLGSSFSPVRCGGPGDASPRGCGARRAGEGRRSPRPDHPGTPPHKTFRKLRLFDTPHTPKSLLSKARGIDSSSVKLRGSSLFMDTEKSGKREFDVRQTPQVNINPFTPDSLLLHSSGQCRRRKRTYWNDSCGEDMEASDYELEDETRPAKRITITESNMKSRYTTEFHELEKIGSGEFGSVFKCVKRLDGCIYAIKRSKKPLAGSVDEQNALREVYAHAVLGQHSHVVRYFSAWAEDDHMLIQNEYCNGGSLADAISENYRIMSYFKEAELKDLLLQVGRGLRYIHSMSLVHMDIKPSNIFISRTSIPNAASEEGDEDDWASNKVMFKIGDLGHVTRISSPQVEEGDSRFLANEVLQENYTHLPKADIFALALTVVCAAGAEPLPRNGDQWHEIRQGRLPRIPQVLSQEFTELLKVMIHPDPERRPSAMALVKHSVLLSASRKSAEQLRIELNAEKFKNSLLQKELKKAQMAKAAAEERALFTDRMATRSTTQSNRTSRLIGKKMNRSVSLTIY
T2 sequence (Q96SW2 whole entry): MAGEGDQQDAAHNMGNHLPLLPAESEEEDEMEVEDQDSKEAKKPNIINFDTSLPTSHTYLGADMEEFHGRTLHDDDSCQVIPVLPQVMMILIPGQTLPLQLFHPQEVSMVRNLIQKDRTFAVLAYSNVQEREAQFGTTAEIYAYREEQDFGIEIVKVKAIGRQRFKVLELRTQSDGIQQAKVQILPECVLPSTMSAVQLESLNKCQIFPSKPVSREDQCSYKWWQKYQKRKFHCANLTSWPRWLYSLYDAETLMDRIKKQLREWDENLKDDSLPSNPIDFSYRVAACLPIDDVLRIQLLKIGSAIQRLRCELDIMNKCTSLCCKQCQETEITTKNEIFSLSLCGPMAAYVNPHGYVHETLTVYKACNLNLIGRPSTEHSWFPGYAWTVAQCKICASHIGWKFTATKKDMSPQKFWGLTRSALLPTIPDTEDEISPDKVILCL
T2 sequence (Q16531 whole entry partner): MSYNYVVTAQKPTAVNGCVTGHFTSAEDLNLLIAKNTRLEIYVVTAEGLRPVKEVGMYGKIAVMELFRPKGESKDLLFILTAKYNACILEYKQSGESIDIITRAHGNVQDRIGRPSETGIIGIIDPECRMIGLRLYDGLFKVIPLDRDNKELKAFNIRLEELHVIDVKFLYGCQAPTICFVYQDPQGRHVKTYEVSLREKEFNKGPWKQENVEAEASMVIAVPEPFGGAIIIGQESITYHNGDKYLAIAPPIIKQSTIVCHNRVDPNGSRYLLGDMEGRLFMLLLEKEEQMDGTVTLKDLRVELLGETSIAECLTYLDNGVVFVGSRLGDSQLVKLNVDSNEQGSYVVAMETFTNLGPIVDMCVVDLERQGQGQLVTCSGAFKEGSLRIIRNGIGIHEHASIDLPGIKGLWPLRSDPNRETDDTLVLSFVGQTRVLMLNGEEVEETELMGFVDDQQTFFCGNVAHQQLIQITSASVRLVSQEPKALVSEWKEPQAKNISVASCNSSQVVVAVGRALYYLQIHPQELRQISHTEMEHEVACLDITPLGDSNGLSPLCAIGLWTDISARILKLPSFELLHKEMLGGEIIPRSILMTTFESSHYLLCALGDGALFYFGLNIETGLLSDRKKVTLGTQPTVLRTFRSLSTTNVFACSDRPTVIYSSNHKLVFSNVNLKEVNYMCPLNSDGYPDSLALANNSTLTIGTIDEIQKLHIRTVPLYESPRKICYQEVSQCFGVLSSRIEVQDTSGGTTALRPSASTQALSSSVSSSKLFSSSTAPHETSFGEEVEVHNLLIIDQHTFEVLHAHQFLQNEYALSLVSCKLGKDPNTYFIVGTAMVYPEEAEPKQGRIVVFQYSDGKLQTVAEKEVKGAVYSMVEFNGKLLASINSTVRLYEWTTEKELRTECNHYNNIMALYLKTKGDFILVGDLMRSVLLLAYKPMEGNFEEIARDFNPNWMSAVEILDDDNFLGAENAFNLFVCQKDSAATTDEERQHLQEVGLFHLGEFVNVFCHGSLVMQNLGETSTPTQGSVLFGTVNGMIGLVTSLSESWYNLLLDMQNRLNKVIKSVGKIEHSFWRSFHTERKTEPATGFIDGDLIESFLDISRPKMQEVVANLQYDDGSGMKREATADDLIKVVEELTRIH
Outline: as §1

[3] = molecular target: T3, IKZF2 (Homo sapiens, UniProt Q96SW2+Q9UKS7); assay: Western blot degradation of IKZF2 in hPBMC
T3 construct: endogenous in cells; host or cells: hPBMC
T3 sequence (Q9UKS7 whole entry): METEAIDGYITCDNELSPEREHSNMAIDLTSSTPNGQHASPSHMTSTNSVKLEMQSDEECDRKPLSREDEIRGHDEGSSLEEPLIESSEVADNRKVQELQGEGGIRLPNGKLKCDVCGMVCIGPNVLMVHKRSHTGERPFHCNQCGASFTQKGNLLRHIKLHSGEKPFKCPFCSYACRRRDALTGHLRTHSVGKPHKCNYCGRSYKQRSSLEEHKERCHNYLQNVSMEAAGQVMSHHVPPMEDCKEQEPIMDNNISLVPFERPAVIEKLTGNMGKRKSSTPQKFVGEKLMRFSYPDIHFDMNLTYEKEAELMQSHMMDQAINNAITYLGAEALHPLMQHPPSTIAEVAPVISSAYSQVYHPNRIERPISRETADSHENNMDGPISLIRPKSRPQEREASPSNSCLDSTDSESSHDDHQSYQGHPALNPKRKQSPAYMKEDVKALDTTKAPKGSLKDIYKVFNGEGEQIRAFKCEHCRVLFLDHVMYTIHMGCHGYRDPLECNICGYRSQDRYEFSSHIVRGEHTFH
T3 sequence (Q96SW2 whole entry): as the sequence (Q96SW2 whole entry) above
T3 sequence (Q16531 whole entry partner): as the sequence (Q16531 whole entry partner) above
Outline: as §1

[4] = molecular target: T4, IKZF1 (Homo sapiens, UniProt Q13422+Q96SW2); assay: Western blot degradation of IKZF1 in hPBMC
T4 construct: endogenous in cells; host or cells: hPBMC
T4 sequence (Q13422 whole entry): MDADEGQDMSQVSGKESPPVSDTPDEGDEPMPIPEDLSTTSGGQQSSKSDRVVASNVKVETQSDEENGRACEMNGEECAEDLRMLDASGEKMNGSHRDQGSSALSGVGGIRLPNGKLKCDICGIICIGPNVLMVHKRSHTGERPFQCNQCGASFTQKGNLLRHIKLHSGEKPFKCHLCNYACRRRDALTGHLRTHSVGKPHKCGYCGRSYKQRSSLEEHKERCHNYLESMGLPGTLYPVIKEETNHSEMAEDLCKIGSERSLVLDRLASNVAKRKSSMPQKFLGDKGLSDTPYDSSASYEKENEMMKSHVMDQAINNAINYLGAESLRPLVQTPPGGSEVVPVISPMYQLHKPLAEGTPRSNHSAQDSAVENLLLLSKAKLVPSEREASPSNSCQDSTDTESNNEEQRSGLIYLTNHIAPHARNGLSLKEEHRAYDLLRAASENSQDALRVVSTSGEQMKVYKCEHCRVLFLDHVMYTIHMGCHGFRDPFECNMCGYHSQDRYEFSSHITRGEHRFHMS
T4 sequence (Q96SW2 whole entry): as the sequence (Q96SW2 whole entry) above
T4 sequence (Q16531 whole entry partner): as the sequence (Q16531 whole entry partner) above
Outline: as §1

[5] = molecular target: T5, GSPT1 (Homo sapiens, UniProt P15170+Q96SW2); assay: Western blot degradation of GSPT1 in hPBMC
T5 construct: endogenous in cells; host or cells: hPBMC
T5 sequence (P15170 whole entry): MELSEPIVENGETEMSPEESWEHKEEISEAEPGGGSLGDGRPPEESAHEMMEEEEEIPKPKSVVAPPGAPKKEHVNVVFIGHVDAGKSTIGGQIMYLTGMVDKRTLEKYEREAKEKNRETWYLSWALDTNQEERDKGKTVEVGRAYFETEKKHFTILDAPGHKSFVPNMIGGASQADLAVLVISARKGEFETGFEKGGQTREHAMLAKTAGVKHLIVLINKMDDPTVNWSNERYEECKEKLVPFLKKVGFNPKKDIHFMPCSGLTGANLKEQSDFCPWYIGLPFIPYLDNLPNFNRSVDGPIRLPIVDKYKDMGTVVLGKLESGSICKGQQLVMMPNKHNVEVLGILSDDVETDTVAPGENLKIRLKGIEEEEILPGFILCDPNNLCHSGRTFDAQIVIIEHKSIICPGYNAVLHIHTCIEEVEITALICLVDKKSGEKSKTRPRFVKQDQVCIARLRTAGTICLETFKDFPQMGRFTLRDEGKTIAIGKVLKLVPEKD
T5 sequence (Q96SW2 whole entry): as the sequence (Q96SW2 whole entry) above
T5 sequence (Q16531 whole entry partner): as the sequence (Q16531 whole entry partner) above
Outline: as §1

[6] = molecular target: T6, IKZF3 (Homo sapiens, UniProt Q96SW2+Q9UKT9); assay: Western blot degradation of IKZF3 in hPBMC
T6 construct: endogenous in cells; host or cells: hPBMC
Outline: as §1

T1 sequence (P48729 whole entry): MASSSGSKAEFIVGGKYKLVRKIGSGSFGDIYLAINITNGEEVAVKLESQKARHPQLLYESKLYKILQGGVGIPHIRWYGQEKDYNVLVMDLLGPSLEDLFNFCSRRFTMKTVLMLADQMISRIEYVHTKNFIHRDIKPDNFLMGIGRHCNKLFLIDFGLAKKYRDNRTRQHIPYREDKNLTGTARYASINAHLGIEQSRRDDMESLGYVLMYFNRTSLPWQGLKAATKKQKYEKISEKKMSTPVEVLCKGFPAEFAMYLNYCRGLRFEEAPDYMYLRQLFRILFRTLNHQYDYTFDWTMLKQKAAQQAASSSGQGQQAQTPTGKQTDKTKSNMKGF
T1 sequence (Q96SW2 whole entry): as the sequence (Q96SW2 whole entry) above
T1 sequence (Q16531 whole entry partner): as the sequence (Q16531 whole entry partner) above

Row | Compound | Degradation of substrate protein CK1a (substrate protein remaining %) [1] | Degradation of substrate protein WEE1 (substrate protein remaining %) [2] | Degradation of substrate protein IKZF2 (substrate protein remaining %) [3] | Degradation of substrate protein IKZF1 (substrate protein remaining %) [4] | Degradation of substrate protein GSPT1 (substrate protein remaining %) [5] | Degradation of substrate protein IKZF3 (substrate protein remaining %) [6]
1 | CC(C)(C)[Si](C)(C)OCc1cc(NC2CCC(=O)NC2=O)ncc1F (stereo not drawn) [GT-07724, 3-((4-(((tert-butyldimethylsilyl)oxy)methyl)-5-fluoropyridin-2-yl)amino)piperidine-2,6-dione] | B (B is defined as substrate protein remaining % > 80%) | A (A is defined as 0% ≤ substrate protein remaining % ≤ 80%) | A (A is defined as 0% ≤ substrate protein remaining % ≤ 80%) | A (A is defined as 0% ≤ substrate protein remaining % ≤ 80%) | A (A is defined as 0% ≤ substrate protein remaining % ≤ 80%) | A (A is defined as 0% ≤ substrate protein remaining % ≤ 80%)
2 | O=C1CCC(Nc2cc(CO)c(F)cn2)C(=O)N1 (stereo not drawn) [GT-07725, 3-((5-fluoro-4-(hydroxymethyl)pyridin-2-yl)amino)piperidine-2,6-dione] | B (B is defined as substrate protein remaining % > 80%) | A (A is defined as 0% ≤ substrate protein remaining % ≤ 80%) | A (A is defined as 0% ≤ substrate protein remaining % ≤ 80%) | A (A is defined as 0% ≤ substrate protein remaining % ≤ 80%) | A (A is defined as 0% ≤ substrate protein remaining % ≤ 80%) | A (A is defined as 0% ≤ substrate protein remaining % ≤ 80%)
3 | CC(C)(C)[Si](C)(C)OCc1ccc(NC2CCC(=O)NC2=O)nn1 (stereo not drawn) [GT-07726, 3-((6-(((tert-butyldimethylsilyl)oxy)methyl)pyridazin-3-yl)amino)piperidine-2,6-dione] | B (B is defined as substrate protein remaining % > 80%) | A (A is defined as 0% ≤ substrate protein remaining % ≤ 80%) | A (A is defined as 0% ≤ substrate protein remaining % ≤ 80%) | A (A is defined as 0% ≤ substrate protein remaining % ≤ 80%) | B (B is defined as substrate protein remaining % > 80%) | A (A is defined as 0% ≤ substrate protein remaining % ≤ 80%)
4 | O=C1CCC(Nc2ncncc2CO)C(=O)N1 (stereo not drawn) [GT-07727, 3-((5-(hydroxymethyl)pyrimidin-4-yl)amino)piperidine-2,6-dione] | B (B is defined as substrate protein remaining % > 80%) | A (A is defined as 0% ≤ substrate protein remaining % ≤ 80%) | A (A is defined as 0% ≤ substrate protein remaining % ≤ 80%) | A (A is defined as 0% ≤ substrate protein remaining % ≤ 80%) | B (B is defined as substrate protein remaining % > 80%) | A (A is defined as 0% ≤ substrate protein remaining % ≤ 80%)
5 | O=C1CCN(c2cncc(CCl)n2)C(=O)N1 [GT-07728, 1-(6-(chloromethyl)pyrazin-2-yl)dihydropyrimidine-2,4(1H,3H)-dione] | B (B is defined as substrate protein remaining % > 80%) | A (A is defined as 0% ≤ substrate protein remaining % ≤ 80%) | A (A is defined as 0% ≤ substrate protein remaining % ≤ 80%) | A (A is defined as 0% ≤ substrate protein remaining % ≤ 80%) | B (B is defined as substrate protein remaining % > 80%) | A (A is defined as 0% ≤ substrate protein remaining % ≤ 80%)
6 | NCc1cc(N2CCC(=O)NC2=O)cnc1F [GT-07729, 1-(5-(aminomethyl)-6-fluoropyridin-3-yl)dihydropyrimidine-2,4(1H,3H)-dione] | B (B is defined as substrate protein remaining % > 80%) | A (A is defined as 0% ≤ substrate protein remaining % ≤ 80%) | A (A is defined as 0% ≤ substrate protein remaining % ≤ 80%) | A (A is defined as 0% ≤ substrate protein remaining % ≤ 80%) | A (A is defined as 0% ≤ substrate protein remaining % ≤ 80%) | A (A is defined as 0% ≤ substrate protein remaining % ≤ 80%)
7 | NCc1cncc(N2CCC(=O)NC2=O)n1 [GT-07801, 1-(6-(aminomethyl)pyrazin-2-yl)dihydropyrimidine-2,4(1H,3H)-dione] | A (A is defined as 0% ≤ substrate protein remaining % ≤ 80%) | B (B is defined as substrate protein remaining % > 80%) | B (B is defined as substrate protein remaining % > 80%) | B (B is defined as substrate protein remaining % > 80%) | B (B is defined as substrate protein remaining % > 80%) | B (B is defined as substrate protein remaining % > 80%)
8 | O=C1CCC(Nc2ccc(CO)nn2)C(=O)N1 (stereo not drawn) [GT-07803, 3-((6-(hydroxymethyl)pyridazin-3-yl)amino)piperidine-2,6-dione] | B (B is defined as substrate protein remaining % > 80%) | B (B is defined as substrate protein remaining % > 80%) | A (A is defined as 0% ≤ substrate protein remaining % ≤ 80%) | A (A is defined as 0% ≤ substrate protein remaining % ≤ 80%) | B (B is defined as substrate protein remaining % > 80%) | A (A is defined as 0% ≤ substrate protein remaining % ≤ 80%)
9 | O=Cc1ccncc1NC1CCC(=O)NC1=O (stereo not drawn) [GT-07804, 3-((2,6-dioxopiperidin-3-yl)amino)isonicotinaldehyde] | B (B is defined as substrate protein remaining % > 80%) | B (B is defined as substrate protein remaining % > 80%) | A (A is defined as 0% ≤ substrate protein remaining % ≤ 80%) | B (B is defined as substrate protein remaining % > 80%) | B (B is defined as substrate protein remaining % > 80%) | A (A is defined as 0% ≤ substrate protein remaining % ≤ 80%)
10 | O=Cc1cncnc1NC1CCC(=O)NC1=O (stereo not drawn) [GT-07805, 4-((2,6-dioxopiperidin-3-yl)amino)pyrimidine-5-carbaldehyde] | B (B is defined as substrate protein remaining % > 80%) | B (B is defined as substrate protein remaining % > 80%) | A (A is defined as 0% ≤ substrate protein remaining % ≤ 80%) | A (A is defined as 0% ≤ substrate protein remaining % ≤ 80%) | B (B is defined as substrate protein remaining % > 80%) | A (A is defined as 0% ≤ substrate protein remaining % ≤ 80%)
11 | CC(C)(C)[Si](C)(C)OCc1cnc(NC2CCC(=O)NC2=O)nc1 (stereo not drawn) [GT-07808, 3-((5-(((tert-butyldimethylsilyl)oxy)methyl)pyrimidin-2-yl)amino)piperidine-2,6-dione] | B (B is defined as substrate protein remaining % > 80%) | A (A is defined as 0% ≤ substrate protein remaining % ≤ 80%) | A (A is defined as 0% ≤ substrate protein remaining % ≤ 80%) | A (A is defined as 0% ≤ substrate protein remaining % ≤ 80%) | B (B is defined as substrate protein remaining % > 80%) | A (A is defined as 0% ≤ substrate protein remaining % ≤ 80%)
